According to the METLIN SMRT retention time set (Domingo-Almenara et al. 2019):

Assay: gradient 5% acetonitrile 3 min, to 50% in 2 min, to 85% in 15 min, held 3 min, 100 µL/min
Conditions: column: Zorbax Extend-C18 2.1 x 50 mm; eluents: water / acetonitrile, 0.1% formic acid
Procedure, shortened: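 The mobile phases were water and acetonitrile, each with 0.1% formic acid, pumped at 100 μL/min through a Zorbax Extend-C18 column (2.1 × 50 mm, 1.8 μm). Pure standards were injected as mixtures of ~100 molecules and detected by a quadrupole time-of-flight mass spectrometer in positive and negative ionization mode. Retention time came from computationally picked adduct peaks, each inspected by hand.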

RP-LC retention time [s] | SMILES
812 | COc1ccccc1-c1noc(C2CCCN2C(=O)Nc2ccc3c(c2)OCO3)n1 (centres undefined)
594 | CN(C)c1cccc(C(=O)NCC(=O)Nc2nc3ccccc3[nH]2)c1
715 | O=C1CC(c2nc(-c3ccccn3)no2)CN1c1ccc2c(c1)OCCO2 (centres undefined)
706 | O=C(c1ccc(Cn2cncn2)cc1)N1CCc2ccccc21
792 | CC(C)n1c(N2CCN(C(=O)c3ccc(F)cc3)CC2)cc(=O)n(C(C)C)c1=O
801 | O=c1ccc(N2CCC(NS(=O)(=O)c3cccs3)C2)nn1CCOc1ccccc1 (centres undefined)
1040 | COc1ccc(NC(=O)c2cc(C(C)C)n3nccc3n2)cc1
661 | O=C(c1csc(S(=O)(=O)N2CCC(C(=O)N3CCCC3)CC2)c1)N1CCCC1
651 | O=C(NCc1ccccc1)NCC1CCOCC1
848 | Cc1cc(C)cc(NC(=O)C2CCc3nc(N4CCOCC4)ncc3C2)c1 (centres undefined)
856 | CCCN(C(=O)Nc1cc(C)cc(C)c1)c1nc(-c2ccc(C3CCCCC3)cc2)cs1
1050 | COc1ccc(C(=O)N2CCc3nc(-c4ccc(Cl)cc4)ncc3C2)cc1F
577 | Cc1cc(N(C)C)n2nc(CN(C)Cc3ccccc3)nc2n1
1140 | Cc1nnc2ccc(-c3noc(CCc4ccccc4)n3)cn12
1160 | O=C(c1cccc(Br)c1)N1CCc2nc(-c3ccc(Cl)cc3)ncc2C1
788 | Cc1cc(Cl)ccc1NC(=O)NCC1CCOCC1
731 | COc1ccc2nc(C(=O)N3CCN(c4ccc(F)cc4)CC3)cn2n1
831 | O=C(NCCc1c[nH]c2ccc(F)cc12)c1ccc(F)cc1
629 | Cc1ccccc1CNC(=O)CN1CCN(Cc2ccc(F)cc2Cl)C1=O
951 | CC(C(=O)Nc1cccc(F)c1)C1CCN(C(=O)Nc2ccc(Cl)cc2)CC1 (centres undefined)
630 | COc1ccc(NC(=O)N2CC(N(C3CCOCC3)S(C)(=O)=O)C2)cc1OC
711 | CSc1ccc(-c2nc3ccccn3c2Nc2ccc3c(c2)OCO3)cc1
612 | O=C(CCC(=O)N1CCN(c2nc3cccnc3s2)CC1)N1CCCC1

RP-LC retention time [s] | SMILES
736 | CCCN(C)c1nccn2c(=O)n(CC(=O)Nc3ccc(Br)cc3)nc12
570 | CC(C)COc1cc(=O)n2c(c1C(=O)NCCCN1CCOCC1)CCCCC2
675 | CCOc1ccc(NC(=O)Cn2cnc3nc(N4CCC(C(=O)NC5CC5)CC4)sc3c2=O)cc1
1070 | CC1=C(C(=O)Nc2cc(Cl)ccc2C(=O)NC(C)c2ccccc2)SCCO1 (centres undefined)
643 | CCn1c(N2CCCC(C(=O)NCC3CCN(Cc4ccccc4C)CC3)C2)cc(=O)n(C)c1=O (centres undefined)
918 | O=C(NC1CC1)C1CCN(c2nc3ccc(-c4cccc(F)c4)nc3s2)CC1
751 | Cn1cc(S(=O)(=O)N2CCC(C(=O)Nc3cccc(C#N)c3)CC2)cc1C(=O)N1CCCC1
663 | Cn1c(=O)c2c(nc(N3CCOCC3)n2C)n(C)c1=O
729 | CCCC(=O)N1CCC(c2nc(CCOCC3CC3)no2)C1 (centres undefined)
674 | O=C(NC1CC1)C1CCN(c2nc3ncn(CC(=O)N4CCc5ccccc5C4)c(=O)c3s2)CC1
654 | CCCC(=O)Nc1ccc2c(c1)CCC(=O)N2CCOC
814 | O=C(NCCc1csc(-c2ccccc2)n1)[C@H]1CCCN1C(=O)C1CCCC1
750 | CCC(=O)N1CCc2sc(C(=O)NCc3ccc(F)cc3)cc2C1
597 | CCc1noc2nc(C)nc(N3CCCC(C(=O)NCCN4CCCC4)C3)c12 (centres undefined)
660 | O=C(NC1CC1)C1CC(=O)N(c2ccc3c(c2)CCN3C(=O)C2CCC2)C1 (centres undefined)
933 | CCOC(=O)c1ccc(N2C=C(C(=O)OC)S(=O)(=O)c3ccc(F)cc32)cc1
779 | Cn1c(=O)c2nc(S(=O)(=O)CCC(=O)Nc3ccc(Br)cc3)n(C)c2n(C)c1=O
703 | CN1C(=O)c2cccn2CC1C(=O)N1CCc2ccccc21 (centres undefined)
846 | Cc1nc(-c2ccc(OC3CCN(C(=O)c4[nH]nc5c4COc4ccccc4-5)C3)cc2)no1 (centres undefined)
676 | Cc1cccn2c(=O)cc(CN(Cc3ccccc3)Cc3ccco3)nc12
701 | COc1ccc(NS(=O)(=O)c2cc(-c3[nH]ncc3C(=O)N3CCCC3)oc2C)cc1F
889 | CN(CCc1noc(-c2ccc(F)cc2)n1)C(=O)COc1ccc(F)cc1
780 | Cc1ccc2nc(-c3ccccc3Cl)c(Nc3ccc(Cl)cc3)n2c1

RP-LC retention time [s] | SMILES
602 | CCN(CC)S(=O)(=O)c1ccc2c(c1)ncn2CCC(=O)N1CCN(c2ccccn2)CC1
728 | CC1CCN(S(=O)(=O)c2ccc3c(ccn3CCC(=O)N3CCN(c4ccccn4)CC3)c2)CC1
614 | Cc1cccc2c(C(=O)NC3CC3)cc(=O)[nH]c12
753 | CCOc1ccccc1NC(=O)NCC(c1cccnc1)c1cn(C)c2ccccc12 (centres undefined)
705 | CCOc1ccc(NC(=O)Cn2nc3cc(C)nc(-c4ccccc4)n3c2=O)cc1
740 | COc1ccc(OC)c(NC(=O)Cn2nc3c4cc(Cl)ccc4ncn3c2=O)c1
1260 | Cc1ccc(-c2csc(-n3nc(C)c(CC(=O)Nc4ccc(C)cc4C)c3C)n2)cc1
914 | O=C(Nc1ccc2c(c1)OCCO2)N1CCC2(CC1)CC(OCc1ccccc1)CCO2 (centres undefined)
809 | CCCN1C(=O)CN(S(=O)(=O)c2ccccc2)CC1(C)C(=O)NCc1ccccc1 (centres undefined)
1120 | Cc1ccccc1-n1c(=O)c2sccc2n(Cc2nc(-c3ccc(OC(C)C)cc3)no2)c1=O
902 | Cc1noc(-c2ccc(NC(=O)c3cc(-c4ccco4)on3)cc2)n1
993 | COc1cccc(CNC(=O)C2(C)CCCN(C(=O)Nc3cccc(Br)c3)C2)c1 (centres undefined)
714 | COc1ccc(-c2nc3ncccn3c2Nc2ccc(F)cc2)cc1
854 | CC1CCc2nc3ncn(CC(=O)Nc4cccc(Br)c4)c(=O)c3cc2C1 (centres undefined)
663 | CCCN1C(=O)C(CC(=O)NCC2CCCO2)Sc2ncccc21 (centres undefined)
943 | CC1Oc2ccc(-c3csc(NC(=O)c4cccc(F)c4)n3)cc2N(C)C1=O (centres undefined)
887 | CCN1C(=O)c2cc(C(=O)Nc3cccc(Cl)c3)nn2CC1(C)C(=O)NC1CCCC1 (centres undefined)
1020 | Cc1cc(-c2nnc(-c3ccccc3)o2)c(C)n1CC(=O)Nc1ccc(Cl)cc1
668 | Nc1cc(C2CCN(C(=O)NCCc3ccccc3)CC2)no1
974 | CC(C)n1cc(S(=O)(=O)NCc2ccc(C(F)(F)F)cc2)c2cccnc21
614 | Cc1ccc(CNC(=O)c2ccc(=O)n(CCN3CCCC3)c2)cc1
638 | COc1ccc(CC(=O)Nc2nc3c(s2)COCC3)cc1OC
745 | O=C1COc2cc(S(=O)(=O)N3CCCC3C(=O)NCc3ccc(F)cc3)c(Cl)cc2N1 (centres undefined)

RP-LC retention time [s] | SMILES
793 | CCc1cc(=O)n(CC(=O)NCc2ccc(F)cc2)c(N)n1
650 | O=S(=O)(c1cccnc1)N1CCCC(Cn2c(C3CC3)nc3cccnc32)C1 (centres undefined)
638 | CCN1C(=O)NC(c2ccc(C(F)(F)F)cc2)C2=C1CN(CCC(=O)N1CCOCC1)C2=O (centres undefined)
670 | CCOc1ccc(NC(=O)Cn2c(CC)nc3cc4c(cc32)OCCO4)cc1
932 | CCN1C(=O)c2cccnc2Sc2cc(NC(=O)c3ccc(Cl)s3)ccc21
616 | Cc1noc(C)c1S(=O)(=O)N1CCC(n2c(C)cnc2-c2ccncc2)C1 (centres undefined)
630 | COc1ccc(C(C)NC(=O)c2cn3cc(C)ccc3n2)cc1OC (centres undefined)
852 | COc1cccc(OC)c1C(=O)Nc1cc2c(cc1S(=O)(=O)c1ccc(F)cc1)n(C)c(=O)n2C
629 | O=C(NCCCn1nc(-c2ccncc2)ccc1=O)C1c2ccccc2Oc2ccccc21
778 | O=C(NC1CCCCC1)C1CCCN(c2nnc3ccc(Cl)cn23)C1 (centres undefined)
769 | COC(=O)c1cccc(C(=O)N2CCc3ccccc3C2)n1
767 | CC(=O)NCCn1c(SCC(=O)OCc2ccccc2)nc2ccccc2c1=O
788 | O=C(CSc1nnc(-c2ccncc2)o1)N1CCCc2ccccc21
1200 | Clc1ccccc1-c1csc(Cc2nc(-c3ccc4c(c3)OCO4)no2)n1
1010 | N#CC1=CN(c2ccc3c(c2)CCC3)c2ccccc2S1(=O)=O
676 | CCc1nnc(-c2cc(S(=O)(=O)NCCc3ccc(S(N)(=O)=O)cc3)cn2C)o1
671 | Cc1oc(-c2[nH]ncc2C(=O)N(C)C)cc1S(=O)(=O)NCC(C)C
731 | CC(C)C(NC(=O)Cc1ccccc1Cl)C(=O)Nc1nc2ccccc2[nH]1 (centres undefined)
1000 | Cn1ncc2c(Sc3ccc(Cl)cc3)ncnc21
680 | CCN1CCn2cc(S(=O)(=O)Nc3cccc(C#N)c3)cc2C1=O
